Laboratory results from patent publication US10301325B2, “Quinoline derivative, and pharmaceutical composition, preparation method and use thereof” (SHANGHAI HAIJU BIOLOGICAL TECHNOLOGY CO., LTD., priority 2015, dated 2019).
pIC50: −log10 of the molar value.

How the values were obtained:
c-Met kinase = c-Met kinase (Homo sapiens, UniProt P08581); assay: c-Met kinase activity assay (HTRF); assay type: biochemical; conditions: c-Met kinase from Carna Biosciences, read-out: IC50 (c-Met/BIO)
Method: The inhibitory ability of the compounds of the present invention on c-Met kinase activity was determined by Homogeneous Time-Resolved Fluorescence (HTRF), and was expressed by the median inhibitory concentration IC50 value of the compounds. The method was as follows: a series of compounds with gradient concentration were incubated with a specific concentration of the enzyme solution for 5 minutes at room temperature, after which an appropriate amount of enzyme reaction substrate and ATP were added to start the enzyme reaction process. After 30 minutes, an appropriate amount of stop solution and detection solution were added, and the mixture was incubated for 1 hour. Then, the enzyme activity at specific compound concentrations was measured at wavelengths of 665 nm and 620 nm on Envision 2104 Multilabel Microcell Detector of PerkinElmer Company, and the inhibitory activity of the compound at different concentrations on enzyme activity was calculated, then the result was fitted to calculate the IC50 value. The c-Met kinase used in this embodiment was purchased from Carna Biosciences, the test kit HTRF KinEASE-TK was purchased from Cisbio Bioassays Company, and ATP was purchased from Sigma Aldrich Company.

[1] = tested on: human gastric cancer cells SNU-5 with high expression of c-Met; assay: c-Met cell proliferation inhibition test (CCK-8, 72 hours); assay type: cell-based; conditions: SNU-5 cells
Method: The inhibitory activity of the test compound on proliferation of human gastric cancer cells SNU-5 with high expression of c-Met was determined through the following in vitro cell assay, and the activity can be expressed by IC50 value. Specific experimental method can refer to Neru Munshi, Sebastien Jeay, Youzhi Li, et al., ARQ 197, a Novel and Selective Inhibitor of the Human c-Met Receptor Tyrosine Kinase with Antitumor Activity. Mol Cancer Ther 2010; 9:1544-1553, the content of which is incorporated herein by reference in its entirety. The general method is as follows: first, human tumor cells SNU-5 (purchased from the Institute of Biochemistry and Cell Biology) with high expression of c-Met was selected and inoculated on a 96-well culture plate at a suitable cell concentration (e.g., 5000 cells/ml culture medium), then they were diluted with IMDM culture medium containing 2% FBS to form a series of test compound solutions at gradient concentrations (generally 6 to 7 concentrations) and continuously incubated for 72 hours. After 72 hours, the activity of the test compound on inhibiting cell proliferation could be determined using the Cell Counting Kit-8 (CCK-8, purchased from DojinDo) method. The IC50 value can be calculated from the inhibitory values on cell proliferation of the test compound at a series of different concentrations.

Chain of c-Met kinase (P08581 25-1390): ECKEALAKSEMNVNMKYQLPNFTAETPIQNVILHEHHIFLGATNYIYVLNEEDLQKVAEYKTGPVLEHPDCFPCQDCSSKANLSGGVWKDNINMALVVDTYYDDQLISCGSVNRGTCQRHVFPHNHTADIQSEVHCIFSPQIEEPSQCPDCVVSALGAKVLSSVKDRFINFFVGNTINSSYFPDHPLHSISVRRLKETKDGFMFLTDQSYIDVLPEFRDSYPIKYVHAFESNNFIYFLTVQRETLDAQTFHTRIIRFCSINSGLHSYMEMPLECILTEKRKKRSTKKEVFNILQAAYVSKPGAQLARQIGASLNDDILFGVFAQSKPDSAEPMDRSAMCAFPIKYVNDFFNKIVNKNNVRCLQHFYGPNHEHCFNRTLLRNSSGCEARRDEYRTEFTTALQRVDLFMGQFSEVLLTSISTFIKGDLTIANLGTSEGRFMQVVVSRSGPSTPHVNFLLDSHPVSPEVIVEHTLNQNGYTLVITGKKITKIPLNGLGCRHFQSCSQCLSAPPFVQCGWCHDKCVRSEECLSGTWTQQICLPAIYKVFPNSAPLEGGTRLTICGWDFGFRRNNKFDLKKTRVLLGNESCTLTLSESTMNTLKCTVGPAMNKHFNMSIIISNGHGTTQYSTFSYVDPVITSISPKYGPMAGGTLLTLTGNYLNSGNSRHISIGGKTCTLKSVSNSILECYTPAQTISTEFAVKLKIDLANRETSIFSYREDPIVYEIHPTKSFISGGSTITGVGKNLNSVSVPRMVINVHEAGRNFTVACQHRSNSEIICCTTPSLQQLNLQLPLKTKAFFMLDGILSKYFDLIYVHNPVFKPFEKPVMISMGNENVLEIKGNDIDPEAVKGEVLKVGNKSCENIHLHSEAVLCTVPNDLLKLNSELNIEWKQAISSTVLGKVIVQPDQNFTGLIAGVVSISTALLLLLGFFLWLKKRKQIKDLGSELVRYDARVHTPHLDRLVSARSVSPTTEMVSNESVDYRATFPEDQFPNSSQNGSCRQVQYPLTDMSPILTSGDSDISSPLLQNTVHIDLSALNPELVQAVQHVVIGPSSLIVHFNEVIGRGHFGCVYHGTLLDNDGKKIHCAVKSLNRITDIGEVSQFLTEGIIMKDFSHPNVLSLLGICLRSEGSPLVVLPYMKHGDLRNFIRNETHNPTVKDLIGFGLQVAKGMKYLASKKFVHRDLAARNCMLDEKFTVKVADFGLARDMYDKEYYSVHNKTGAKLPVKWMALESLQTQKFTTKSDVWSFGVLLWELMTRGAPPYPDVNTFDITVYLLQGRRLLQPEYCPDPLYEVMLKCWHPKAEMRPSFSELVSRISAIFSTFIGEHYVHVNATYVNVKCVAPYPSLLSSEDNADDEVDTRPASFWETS

pIC50 (c-Met kinase) | pIC50 [1] | Structure (SMILES)
9.00 | 8.92 | CN1C(=O)COc2c1cnc1cc(F)c(C(F)(F)c3nnc4ccc(-c5cnn(C)c5)nn34)cc21 [Embodiment 1, 9-{difluoro(6-(1-methyl-1H-pyrazol-4-yl)-[1,2,4]triazolo[4,3-b]pyridazin-3-yl)methyl}-8-fluoro-4-methyl-2H-[1,4]oxazino[3,2-c]quinolin-3(4H)-one]
8.66 | 8.55 | CN1C(=O)COc2c1cnc1cc(F)c(Sc3nnc4ccc(-c5cnn(C)c5)nn34)cc21 [Embodiment 2, 8-fluoro-4-methyl-9-{[6-(1-methyl-1H-pyrazol-4-yl)-[1,2,4]triazolo[4,3-b]pyridazin-3-yl]sulfanyl}-2H-[1,4]oxazino[3,2-c]quinolin-3 (4H)-one]
8.31 | 8.33 | Cn1cc(-c2ccc3nnc(C(F)(F)c4ccc5ncccc5c4)n3n2)cn1 [JNJ-38877605, reference compound]
